Where two headings read alike, the source gives them in different places.
How the values were obtained:
[1] = test system: Colon cells (HT-29); test: cells; assay type: cell-based; conditions: Spike S1 Protein (1 μg/ml); for inhibition at 0.1 µM / inhibition at 1 µM / inhibition at 10 µM / inhibition at 20 µM: Homo sapiens, HT-29
[2] = test system: Bone cells (MG-63); test: cells; assay type: cell-based; conditions: Spike S1 Protein (10 μg/ml); for inhibition at 0.1 µM / inhibition at 1 µM / inhibition at 10 µM / inhibition at 20 µM: Homo sapiens, MG-63
[3] = test system: Endothelial cells (EA.hy926); test: cells; assay type: cell-based; conditions: Spike S1 Protein (1 μg/ml); for inhibition at 0.1 µM / inhibition at 1 µM / inhibition at 10 µM / inhibition at 20 µM: Homo sapiens, EA.hy 926
[4] = test system: Immune (THP-1) cells; test: in vitro; assay type: cell-based, Human; conditions: 48 h
Experimental: (§1) A549 cells were plated in DMEM+10% FBS at a density of 10,000 cells/well in 96-well culture plates and incubated at 37° C. for 24 h. THP-1 cells were plated in RPMI+10% FBS at a density of 10,000 cells/well in 96-well culture plates and incubated at 37° C. for 24 h. Cells were sera-starved for 24 h. […] Untreated cells were used as control. Cells treated with dexamethasone and hydroxychloroquine were included as positive control. After treatment, cells were incubated in a 5% CO2 incubator for 48 h.

[5] = in vitro; assay type: cell-based, Human; conditions: human, 1 μM
Experimental: as §1

[6] = test system: liver cells (HepG2); test: cells; assay type: cell-based; conditions: Spike S1 Protein (20 μg/ml)
[7] = test system: Lung (A549) cells; test: in vitro; assay type: cell-based, Human; conditions: 48 h
Experimental: as §1

[8] = in vitro; assay type: cell-based, Human; conditions: human, 1 μM; remark: listed apart in the source
Experimental: as §1

[9] = test system: pancreatic cells (PANC-1); test: cells; assay type: cell-based; conditions: Spike S1 Protein (20 μg/ml)+
[10] = test system: Kidney cells (HEK-293); test: cells; assay type: cell-based; conditions: Spike S1 Protein (100 ng/ml); for inhibition at 0.1 µM / inhibition at 1 µM / inhibition at 10 µM / inhibition at 20 µM: Homo sapiens, HEK293
[11] = test system: Bladder cells (T24); test: tissue or blood; assay type: cell-based; conditions: Spike S1 Protein (5 μg/ml)
[12] = test system: Cardiac cells (H9C2); test: cells; assay type: cell-based; conditions: Spike S1 Protein (5 μg/ml); for inhibition at 0.1 µM / inhibition at 1 µM / inhibition at 10 µM / inhibition at 20 µM: Rattus norvegicus, H9c2
[13] = 0.1 μM, read-out: % Inhibition (wrt Control), IL-6
[14] = 0.1 μM, read-out: % Inhibition (wrt Control), IL-8
[15] = 1 μM, read-out: % Inhibition (wrt Control), IL-6
[16] = 1 μM, read-out: % Inhibition (wrt Control), IL-8
[17] = 10 μM, read-out: % Inhibition (wrt Control), IL-6
[18] = 10 μM, read-out: % Inhibition (wrt Control), IL-8
[19] = 20 μM, read-out: % Inhibition (wrt Control), IL-6
[20] = 20 μM, read-out: % Inhibition (wrt Control), IL-8
[21] = 0.1 μM, read-out: % Inhibition (IL-6)
[22] = 0.1 μM, read-out: % Inhibition (IL-8)
[23] = 1 μM, read-out: % Inhibition (IL-6)
[24] = 1 μM, read-out: % Inhibition (IL-8)
[25] = 10 μM, read-out: % Inhibition (IL-6)
[26] = 10 μM, read-out: % Inhibition (IL-8)
[27] = 20 μM, read-out: % Inhibition (IL-6)
[28] = 20 μM, read-out: % Inhibition (IL-8)

Q: Which results are given for `CCN(CCO)CCCC(C)Nc1ccnc2cc(Cl)ccc12` (stereo not shown) [Hydroxychloroquine sulphate]?
A: Con. of IL-8 ([1]; 0.1 μM): 49.1 pg/mL; Conc. of IL-6 ([1]; 0.1 μM): 114.8 pg/mL; Con. of IL-8 ([1]; 1 μM): 92.3 pg/mL; Conc. of IL-6 ([1]; 1 μM): 91.1 pg/mL; Con. of IL-8 ([1]; 10 μM): 99.5 pg/mL; Conc. of IL-6 ([1]; 10 μM): 125.2 pg/mL; Con. of IL-8 ([1]; 20 μM): 37.6 pg/mL; Conc. of IL-6 ([1]; 20 μM): 104.2 pg/mL; inhibition at 0.1 µM [1, 13]: 51.3%; inhibition at 0.1 µM [1, 14]: 92.7%; inhibition at 1 µM [1, 15]: 61.4%; inhibition at 1 µM [1, 16]: 86.2%; inhibition at 10 µM [1, 17]: 46.9%; inhibition at 10 µM [1, 18]: 85.2%; inhibition at 20 µM [1, 19]: 55.8%; inhibition at 20 µM [1, 20]: 94.4%; Con. of IL-8 ([2]; 0.1 μM): 703.3 pg/mL; Conc. of IL-6 ([2]; 0.1 μM): 136.5 pg/mL; Con. of IL-8 ([2]; 1 μM): 660.0 pg/mL; Conc. of IL-6 ([2]; 1 μM): 171.8 pg/mL; Con. of IL-8 ([2]; 10 μM): 774.4 pg/mL; Conc. of IL-6 ([2]; 10 μM): 233.8 pg/mL; Con. of IL-8 ([2]; 20 μM): 1388.3 pg/mL; Conc. of IL-6 ([2]; 20 μM): 354.0 pg/mL; inhibition at 0.1 µM [2, 13]: 14.7%; inhibition at 0.1 µM [2, 14]: 0.6%; inhibition at 1 µM [2, 15]: -7.4%; inhibition at 1 µM [2, 16]: 6.8%; inhibition at 10 µM [2, 17]: -46.1%; inhibition at 10 µM [2, 18]: -9.4%; inhibition at 20 µM [2, 19]: -121%; inhibition at 20 µM [2, 20]: -96.2%; Con. of IL-8 ([3]; 0.1 μM): 826.7 pg/mL; Conc. of IL-6 ([3]; 0.1 μM): 145.1 pg/mL; Con. of IL-8 ([3]; 1 μM): 1026.6 pg/mL; Conc. of IL-6 ([3]; 1 μM): 200.3 pg/mL; Con. of IL-8 ([3]; 10 μM): 1756.7 pg/mL; Conc. of IL-6 ([3]; 10 μM): 64.0 pg/mL; Con. of IL-8 ([3]; 20 μM): 1573.3 pg/mL; Conc. of IL-6 ([3]; 20 μM): 58.9 pg/mL; inhibition at 0.1 µM ([3]; 0.1 μM, read-out: % Inhibition (wrt, IL-6)): 56.9%; inhibition at 0.1 µM ([3]; 0.1 μM, read-out: % Inhibition (wrt, IL-8)): 48.8%; inhibition at 1 µM ([3]; 1 μM, read-out: % Inhibition (wrt, IL-6)): 40.5%; inhibition at 1 µM ([3]; 1 μM, read-out: % Inhibition (wrt, IL-8)): 36.5%; inhibition at 10 µM ([3]; 10 μM, read-out: % Inhibition (wrt, IL-6)): 81%; inhibition at 10 µM ([3]; 10 μM, read-out: % Inhibition (wrt, IL-8)): 0%; inhibition at 20 µM ([3]; 20 μM, read-out: % Inhibition (wrt, IL-6)): 82.5%; inhibition at 20 µM ([3]; 20 μM, read-out: % Inhibition (wrt, IL-8)): 2.6%; % Viability ([4]; 0.1 μM): 113.4%; % Viability ([4]; 1 μM): 105.2%; % Viability ([4]; 5 μM): 95.8%; % Viability ([4]; 10 μM): 104.8%; % Viability ([4]; 20 μM): 89.3%; cytotoxicity at 48 h, 1 µM [5]: -5.2%; Conc. of IL-8 ([6]; 0.1 μM): 117.1 pg/mL; Conc. of IL-8 ([6]; 1 μM): 193.2 pg/mL; Conc. of IL-8 ([6]; 10 μM): 162.5 pg/mL; Conc. of IL-8 ([6]; 20 μM): 103.6 pg/mL; inhibition at 0.1 µM ([6]; Homo sapiens, HepG2, 0.1 μM, read-out: % Inhibition (wrt Control ), IL-8): 76.5%; inhibition at 1 µM ([6]; Homo sapiens, HepG2, 1 μM, read-out: % Inhibition (wrt Control ), IL-8): 61.3%; inhibition at 10 µM ([6]; Homo sapiens, HepG2, 10 μM, read-out: % Inhibition (wrt Control ), IL-8): 67.4%; inhibition at 20 µM ([6]; Homo sapiens, HepG2, 20 μM, read-out: % Inhibition (wrt Control ), IL-8): 79.2%; % Viability ([7]; 0.1 μM): 79.0%; % Viability ([7]; 1 μM): 105.2%; % Viability ([7]; 5 μM): 101.0%; % Viability ([7]; 10 μM): 110.9%; % Viability ([7]; 20 μM): 72.4%; cytotoxicity at 48 h, 1 µM [8]: -5.2%; Conc. of IL-8 ([9]; 0.1 μM): 214 pg/mL; Conc. of IL-8 ([9]; 1 μM): 169.9 pg/mL; Conc. of IL-8 ([9]; 10 μM): 200.5 pg/mL; Conc. of IL-8 ([9]; 20 μM): 203 pg/mL; inhibition at 0.1 µM ([9]; Homo sapiens, PANC-1, 0.1 μM, read-out: % Inhibition (wrt Control ), IL-8): 71.3%; inhibition at 1 µM ([9]; Homo sapiens, PANC-1, 1 μM, read-out: % Inhibition (wrt Control ), IL-8): 77.2%; inhibition at 10 µM ([9]; Homo sapiens, PANC-1, 10 μM, read-out: % Inhibition (wrt Control ), IL-8): 73.1%; inhibition at 20 µM ([9]; Homo sapiens, PANC-1, 20 μM, read-out: % Inhibition (wrt Control ), IL-8): 72.8%; Con. of IL-8 ([10]; 0.1 μM): 651.8 pg/mL; Conc. of IL-6 ([10]; 0.1 μM): 94.2 pg/mL; Con. of IL-8 ([10]; 1 μM): 678.2 pg/mL; Conc. of IL-6 ([10]; 1 μM): 97.4 pg/mL; Con. of IL-8 ([10]; 10 μM): 959.1 pg/mL; Conc. of IL-6 ([10]; 10 μM): 137.7 pg/mL; Con. of IL-8 ([10]; 20 μM): 1809.1 pg/mL; Conc. of IL-6 ([10]; 20 μM): 260.0 pg/mL; inhibition at 0.1 µM [10, 13]: 63.8%; inhibition at 0.1 µM [10, 14]: 66%; inhibition at 1 µM [10, 15]: 62.6%; inhibition at 1 µM [10, 16]: 64.6%; inhibition at 10 µM [10, 17]: 47.1%; inhibition at 10 µM [10, 18]: 49.9%; inhibition at 20 µM [10, 19]: 0%; inhibition at 20 µM [10, 20]: 5.5%; Con. of IL-8 ([11]; 0.1 μM): 2661.3; Conc. of IL-6 ([11]; 0.1 μM): 432.0; inhibition at 0.1 µM [11, 21]: 25.2%; inhibition at 0.1 µM [11, 22]: 37.7%; Con. of IL-8 ([11]; 1 μM): 2527.7; Conc. of IL-6 ([11]; 1 μM): 410.8; inhibition at 1 µM [11, 23]: 28.9%; inhibition at 1 µM [11, 24]: 40.9%; Con. of IL-8 ([11]; 10 μM): 2679.5; Conc. of IL-6 ([11]; 10 μM): 430.2; inhibition at 10 µM [11, 25]: 25.5%; inhibition at 10 µM [11, 26]: 37.3%; Con. of IL-8 ([11]; 20 μM): 2470.0; Conc. of IL-6 ([11]; 20 μM): 415.8; inhibition at 20 µM [11, 27]: 28%; inhibition at 20 µM [11, 28]: 42.2%; Con. of IL-8 ([12]; 0.1 μM): 952.1; Conc. of IL-6 ([12]; 0.1 μM): 420.1; Con. of IL-8 ([12]; 1 μM): 768.5; Conc. of IL-6 ([12]; 1 μM): 313.4; Con. of IL-8 ([12]; 10 μM): 231.8; Conc. of IL-6 ([12]; 10 μM): 125.2; Con. of IL-8 ([12]; 20 μM): 45.5; Conc. of IL-6 ([12]; 20 μM): 61.8; inhibition at 0.1 µM [12, 21]: 16.9%; inhibition at 0.1 µM [12, 22]: 33.5%; inhibition at 1 µM [12, 23]: 38%; inhibition at 1 µM [12, 24]: 46.3%; inhibition at 10 µM [12, 25]: 75.2%; inhibition at 10 µM [12, 26]: 83.8%; inhibition at 20 µM [12, 27]: 87.8%; inhibition at 20 µM [12, 28]: 96.8%

Reference: patent US20250041380A1, “R[…] FOR SARS-COV2 DISEASE” (priority 2021, published 2025)
